The structures appear in SMILES notation.

The target in the assay is T1, 11β-HSD1 (Homo sapiens, UniProt P28845).
T1 construct: detecting cortisol generated from cortisterone by human liver microsomes; from tissue; host or cells: human liver microsomes
Put plainly: In vitro inhibition of 11β-HSD1, HTRF detection of cortisol generated from cortisone by human liver microsomes. It is filed as biochemical. Particulars: 11β-HSD IC50 (nM), 1 hour at 37° C., pH 6.0, NADPH 200 μM, cortisone 80 nM, inhibition relative to carbenoxolone signal. As for the experimental part:
Cortisol generated in the reaction is then detected with a competitive immunoassay, involving two HTRF conjugates: cortisol linked to XL665 and anti-cortisol antibody labeled with Europium cryptate. The incubation period for detection reaction was typically 2 hours. […] The ratio of the two emission signals is then calculated (Em665*10000/Em615). […] Each assay also contained a calibration curve with cortisol to transform the fluorescent data into cortisol concentrations. Percent inhibition of each compound was determined relative to the carbenoxolone signal and IC50 curves were generated.

T1 sequence (P28845 whole entry): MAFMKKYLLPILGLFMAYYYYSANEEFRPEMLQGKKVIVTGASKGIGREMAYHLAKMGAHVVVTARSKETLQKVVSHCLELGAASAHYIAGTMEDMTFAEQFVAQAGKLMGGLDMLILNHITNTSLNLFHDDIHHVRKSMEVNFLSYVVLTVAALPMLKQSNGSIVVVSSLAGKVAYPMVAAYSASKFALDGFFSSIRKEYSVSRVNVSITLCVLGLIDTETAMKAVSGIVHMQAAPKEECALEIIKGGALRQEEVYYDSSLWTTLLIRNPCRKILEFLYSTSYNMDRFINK

A word on the IC50: it is the concentration needed to halve the response being measured. Higher therefore signals lower potency. On to `CC1(C)[C@H]2Cc3c(O)cccc3[C@]1(C)CCN2C(=O)c1cccc(C(N)=O)c1` [Example 41, 3-[(2R,6S)-10-Hydroxy-6,11,11-trimethyl-1,2,5,6-tetrahydro-4H-2,6-methano-benzo[d]azocine-3-carbonyl]-benzamide], for which the IC50 is 589 nM. Then `COC(=O)c1cc(Cl)cc(C(=O)N2CC[C@@]3(C)c4cccc(O)c4C[C@@H]2C3(C)C)c1` [Example 42, 3-Chloro-5-[(2R,6S)-10-hydroxy-6,11,11-trimethyl-1,2,5,6-tetrahydro-4H-2,6-methano-benzo[d]azocine-3-carbonyl]-benzoic acid methyl ester], with 4530 nM; and `COC(=O)c1cc(F)cc(C(=O)N2CC[C@@]3(C)c4cccc(O)c4C[C@@H]2C3(C)C)c1` [Example 43, 3-Fluoro-5-[(2R,6S)-10-hydroxy-6,11,11-trimethyl-1,2,5,6-tetrahydro-4H-2,6-methano-benzo[d]azocine-3-carbonyl]-benzoic acid methyl ester], with 1760 nM; and `CC1(C)[C@H]2Cc3c(O)cccc3[C@]1(C)CCN2C(=O)c1ccc2c(c1)NCC(=O)N2` [Example 44, 6-[(2R,6S)-10-Hydroxy-6,11,11-trimethyl-1,2,5,6-tetrahydro-4H-2,6-methano-benzo[d]azocine-3-carbonyl]-3,4-dihydro-1H-quinoxalin-2-one], with 200 nM. With `CC1(C)[C@H]2Cc3c(O)cccc3[C@]1(C)CCN2C(=O)c1ccc2scnc2c1` [Example 45, Benzothiazol-5-yl-[(2R,6S)-10-hydroxy-6,11,11-trimethyl-1,2,5,6-tetrahydro-4H-2,6-methano-benzo[d]azocin-3-yl]-methanone], the IC50 was 384 nM. Then `CC1(C)[C@H]2Cc3c(O)cccc3[C@]1(C)CCN2C(=O)c1ccc2ncsc2c1` [Example 46, Benzothiazol-6-yl-[(2R,6S)-10-hydroxy-6,11,11-trimethyl-1,2,5,6-tetrahydro-4H-2,6-methano-benzo[d]azocin-3-yl]-methanone], with 97 nM. Compound `CNc1ccc(C(=O)N2CC[C@@]3(C)c4cccc(O)c4C[C@@H]2C3(C)C)cc1` [Example 48, [(2R,6S)-10-Hydroxy-6,11,11-trimethyl-1,2,5,6-tetrahydro-4H-2,6-methano-benzo[d]azocin-3-yl]-(4-methylamino-phenyl)-methanone] displayed an IC50 of 364 nM. The result for `CC1(C)[C@H]2Cc3c(O)cccc3[C@]1(C)CCN2C(=O)c1ccc2[nH]ccc2c1` [Example 49, [(2R,6S)-10-Hydroxy-6,11,11-trimethyl-1,2,5,6-tetrahydro-4H-2,6-methano-benzo[d]azocin-3-yl]-(1H-indol-5-yl)-methanone] reads 168 nM; that for `COC(=O)c1ccc(C(=O)N2CC[C@@]3(C)c4cccc(O)c4C[C@@H]2C3(C)C)cc1` [Example 50, 4-[(2R,6S)-10-Hydroxy-6,11,11-trimethyl-1,2,5,6-tetrahydro-4H-2,6-methano-benzo[d]azocine-3-carbonyl]-benzoic acid methyl ester], 3000 nM; that for `CC12CCN(C(=O)c3ccc4nc[nH]c4c3)C(Cc3ccc(O)cc31)C2` (centres unmarked) [Example 51, (3H-Benzoimidazol-5-yl)-(8-hydroxy-6-methyl-1,2,5,6-tetrahydro-4H-2,6-methano-benzo[d]azocin-3-yl)-methanone], 629 nM. The result for `C[C@@H]1[C@H]2Cc3ccc(O)cc3[C@]1(C)CCN2C(=O)c1ccc2nc[nH]c2c1` [Example 52, (3H-Benzoimidazol-5-yl)-[(2R,6R,11S)-8-hydroxy-6,11-dimethyl-1,2,5,6-tetrahydro-4H-2,6-methano-benzo[d]azocin-3-yl]-methanone] reads 101 nM. Then `C[C@H]1[C@@H]2Cc3ccc(O)cc3[C@@]1(C)CCN2C(=O)c1ccc2nc[nH]c2c1` [Example 53, (3H-Benzoimidazol-5-yl)-[(2S,6S,11R)-8-hydroxy-6,11-dimethyl-1,2,5,6-tetrahydro-4H-2,6-methano-benzo[d]azocin-3-yl]-methanone], with 321 nM; and `C[C@@H]1[C@@H]2Cc3ccc(O)cc3[C@@]1(C)CCN2C(=O)c1ccc2nc[nH]c2c1` [Example 54, (3H-Benzoimidazol-5-yl)-(8-hydroxy-6,11-dimethyl-1,2,5,6-tetrahydro-4H-2,6-methano-benzo[d]azocin-3-yl)-methanone], with 529 nM. The compound `O=C(c1ccc2nc[nH]c2c1)N1CCC2CC1Cc1ccc(O)cc12` (centres unmarked) [Example 55, (3H-Benzoimidazol-5-yl)-(8-hydroxy-1,2,5,6-tetrahydro-4H-2,6-methano-benzo[d]azocin-3-yl)-methanone] displayed an IC50 of 746 nM. Then `CC1(C)C2Cc3ccc(O)cc3C1(O)CCN2C(=O)c1ccc2nc[nH]c2c1` (centres unmarked) [Example 56, (3H-Benzoimidazol-5-yl)-(6,8-dihydroxy-11,11-dimethyl-1,2,5,6-tetrahydro-4H-4,6-methano-benzo[d]azocin-3-vl)-methanone], with 725 nM. As to `CC1(C)C2Cc3ccccc3C1(O)CCN2C(=O)c1ccc2nc[nH]c2c1` (centres unmarked) [Example 57, (3H-Benzoimidazol-5-yl)-(6-hydroxy-11,11-dimethyl-1,2,5,6-tetrahydro-4H-2,6-methano-benzo[d]azocin-3-yl)-methanone], the IC50 turned out to be 137 nM. The compound `CC12CCN(C(=O)c3ccc4nc[nH]c4c3)C(Cc3ccc(O)cc31)C2(C)C` (centres unmarked) [Example 58, (3H-Benzoimidazol-5-yl)-(8-hydroxy-6,11,11-trimethyl-1,2,5,6-tetrahydro-4H-2,6-methano-benzo[d]azocin-3-yl)-methanone] showed an IC50 of 62 nM.

`CC12CCN(C(=O)c3ccc4nc[nH]c4c3)C(Cc3cc(O)ccc31)C2(C)C` (centres unmarked) [Example 59, (3H-Benzoimidazol-5-yl)-(9-hydroxy-6,11,11-trimethyl-1,2,5,6-tetrahydro-4H-2,6-methano-benzo[d]azocin-3-yl)-methanone] yielded an IC50 of 36 nM. Then `O=C(c1ccc2nc[nH]c2c1)N1CCC2CC1Cc1ccccc12` (centres unmarked) [Example 60, (3H-Benzoimidazol-5-yl)-(1,2,5,6-tetrahydro-4H-2,6-methano-benzo[d]azocin-3-yl)-methanone], with 228 nM; and `Cc1ccc2c(c1)C1(C)CCN(C(=O)c3ccc4nc[nH]c4c3)C(C2)C1(C)C` (centres unmarked) [Example 69, (3H-Benzoimidazol-5-yl)-(6,8,11,11-tetramethyl-1,2,5,6-tetrahydro-4H-2,6-methano-benzo[d]azocin-3-yl)-methanone], with 105 nM. Then `CC12CCN(C(=O)c3ccc4nc[nH]c4c3)C(Cc3ccc(F)cc31)C2(C)C` (centres unmarked) [Example 70, (3H-Benzoimidazol-5-yl)-(8-fluoro-6,11,11-trimethyl-1,2,5,6-tetrahydro-4H-2,6-methano-benzo[d]azocin-3-yl)-methanone], with 362 nM; and `COc1cc2c(cc1O)CC1N(C(=O)c3ccc4nc[nH]c4c3)CCC2(C)C1(C)C` (centres unmarked) [Example 71, (3H-Benzoimidazol-5-yl)-(9-hydroxy-8-methoxy-6,11,11-trimethyl-1,2,5,6-tetrahydro-4H-2,6-methano-benzo[d]azocin-3-yl)-methanone], with 47 nM; and `COc1cc2c(cc1OC)C1(C)CCN(C(=O)c3ccc4nc[nH]c4c3)C(C2)C1(C)C` (centres unmarked) [Example 72, (3H-Benzoimidazol-5-yl)-(8,9-dimethoxy-6,11,11-trimethyl-1,2,5,6-tetrahydro-4H-2,6-methano-benzo[d]azocin-3-yl)-methanone], with 148 nM.

(Values after US8859580B2 (Boehringer Ingelheim International GmbH, priority 2007, dated 2014).)
